From publication PMC9279632 (Acta Pharmaceutica Sinica. B, 2021)

How the values were obtained:
[1] = system: ZIKV PRVABC59; assay: PFU viral plaque reduction assay in A549 cells; assay type: cell-based; settings: Zika virus, A549, read-out: EC50 (anti-ZIKV)
[2] = target: NS2B−NS3 interactions (NLuc-NS2B49−66 / GST-CLuc-NS3) (Dengue virus type 2, UniProt P29990); assay: Split luciferase complementation; assay type: binding
[3] = target: T1, NS2B−NS3 protease (His-tagged NS2B / DENV2 NS3-MBP fusion protein) (Dengue virus type 2, UniProt P29990); assay: NS2B−NS3 protease inhibition assay with FRET substrate; assay type: biochemical
T1 sequence (P29990 1476-1653 limits assumed): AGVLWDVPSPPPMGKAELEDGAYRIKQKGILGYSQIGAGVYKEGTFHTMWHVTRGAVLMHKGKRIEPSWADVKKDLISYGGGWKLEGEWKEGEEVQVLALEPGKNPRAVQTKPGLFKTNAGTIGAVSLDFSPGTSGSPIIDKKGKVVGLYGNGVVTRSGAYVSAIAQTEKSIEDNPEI

[4] = cited from earlier work
[5] = system: 3D mini-forebrain organoid; assay: Toxicity to 3D mini-forebrain organoid; assay type: cell-based, human; settings: Fig. S2; organoids fell apart and lost clear boundary
[6] = IC50-SLC (NS2B–NS3 interaction), split luciferase complementation, n = 3

NS2B−NS3 interactions (NLuc-NS2B49−66 / GST-CLuc-NS3), sequence (P29990 1476-1660): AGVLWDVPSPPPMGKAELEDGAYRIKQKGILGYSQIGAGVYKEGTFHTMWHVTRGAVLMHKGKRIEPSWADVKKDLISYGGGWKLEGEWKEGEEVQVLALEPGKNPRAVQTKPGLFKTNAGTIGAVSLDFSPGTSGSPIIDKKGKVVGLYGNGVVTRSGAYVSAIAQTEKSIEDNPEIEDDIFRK

| Structure (SMILES) | EC50 [1] [µM] | IC50 ([2]; IC50-SLC) [µM] | IC50 [2, 6] [µM] | IC50 [3] [µM] | cellular cytotoxicity [4] | toxicity to 3D organoids (morphology) [5] |
| --- | --- | --- | --- | --- | --- | --- |
| O=C1OC2(c3ccccc31)c1ccc(O)c(Cl)c1Oc1c2ccc(O)c1Cl [JMX0892, 4′,5′-Dichloro-3′,6′-dihydroxy-3H-spiro[isobenzofuran-1,9′-xanthen]-3-one] | > 15 | ~50 | 50 | > 60 | – | – |
| O=C1OC2(c3ccccc31)c1ccc(O)c(Br)c1Oc1c2ccc(O)c1Br [JMX0893, 4′,5′-dibromo-3′,6′-dihydroxy-3H-spiro[isobenzofuran-1,9′-xanthen]-3-one] | > 15 | – | 16 | > 60 | – | – |
| O=C1OC2(c3cc(Cl)c(O)cc3Oc3cc(O)c(Cl)cc32)c2ccccc21 [JMX0897, 2′,7′-Dichloro-3′,6′-dihydroxy-3H-spiro[isobenzofuran-1,9′-xanthen]-3-one] | > 15 | ~50 | 48 | 23 | – | – |
| O=C1OC2(c3cc(I)c(O)c(I)c3Oc3c2cc(I)c(O)c3I)c2c(Cl)c(Cl)c(Cl)c(Cl)c21 [JMX0902, Sodium 4,5,6,7-tetrachloro-2′,4′,5′,7′-tetraiodo-3-oxo-3H-spiro[isobenzofuran-1,9′-xanthene]-3′,6′-bis(olate)] | 0.3 | – | 0.43 | 2.6 | – | – |
| O=C1OC2(c3ccccc31)c1ccc(O)c(I)c1Oc1c2ccc(O)c1I [JMX0903, Sodium 4′,5′-diiodo-3-oxo-3H-spiro[isobenzofuran-1,9′-xanthene]-3′,6′-bis(olate)] | > 15 | – | 15 | 60 | – | – |
| O=C1OC2(c3ccccc31)c1cc(Br)c(O)c(Br)c1Oc1c2cc(Br)c(O)c1Br [JMX0911, 2′,4′,5′,7′-tetrabromo-3′,6′-dihydroxy-3H-spiro[isobenzofuran-1,9′-xanthen]-3-one] | > 15 | – | 3.4 | – | – | – |
| O=C1OC2(c3ccc(O)cc3Oc3cc(O)ccc32)c2ccc(NC(=S)NCCS)cc21 [JMX0912, 1-(3′,6′-Dihydroxy-3-oxo-3H-spiro[isobenzofuran-1,9′-xanthen]-5-yl)-3-(2-mercaptoethyl)thiourea] | > 15 | > 50 | > 100 | 88 | – | – |
| O=C1OC2(c3ccc(O)cc3Oc3cc(O)ccc32)c2ccccc21 [JMX0915, 3′,6′-Dihydroxy-3H-spiro[isobenzofuran-1,9′-xanthen]-3-one] | > 15 | > 50 | > 100 | > 100 | – | – |
| O=C(O)c1ccc2c(c1)C(=O)OC21c2ccc(O)cc2Oc2cc(O)ccc21 [JMX0920, 3′,6′-Dihydroxy-3-oxo-3H-spiro[isobenzofuran-1,9′-xanthene]-5-carboxylic acid] | > 15 | > 50 | 53 | > 100 | – | – |
| Oc1cccc(-c2c3nc(c(-c4cccc(O)c4)c4ccc([nH]4)c(-c4cccc(O)c4)c4nc(c(-c5cccc(O)c5)c5ccc2[nH]5)CC4)C=C3)c1 [temoporfin] | – | – | – | – | moderate cellular cytotoxicity | significant toxicity |
